Common to all, as to type: functional
The test system of test [1] is Helicobacter pylori. The experiment in a line: Antimicrobial activity against Helicobacter pylori TS1900.
The subject of test [2] is Helicobacter pylori. The experiment in a line: Antimicrobial activity against clarithromycin-susceptible Helicobacter pylori ATCC 700392 transformant harboring 23S rRNA of Helicobacter pylori TS1900.
For test [3], the system named is Helicobacter pylori. Put plainly: Antimicrobial activity against Helicobacter pylori S1900.
Test [4] deals with Helicobacter pylori. The experiment in a line: Antimicrobial activity against Helicobacter pylori TS1776.
Test [5] deals with Helicobacter pylori. Put plainly: Antimicrobial activity against Helicobacter pylori TF1.
In test [6] the test system is Helicobacter pylori. Put plainly: Antimicrobial activity against Helicobacter pylori TF2.
The test system of test [7] is Helicobacter pylori. The experiment in a line: Antimicrobial activity against compound-resistant Helicobacter pylori harboring 23S rRNA mutant gene.
For test [8], the system named is Helicobacter pylori. Put plainly: Antimicrobial activity against Helicobacter pylori TF3.
Test [9] relates to Helicobacter pylori. Put plainly: Antimicrobial activity against Helicobacter pylori TF4.
Test [10] has as its system Helicobacter pylori. Put plainly: Antimicrobial activity against Helicobacter pylori.

Structures are written as SMILES. Values after ≈ are worked out from the molar mass of the structure shown.

Data on one compound can be found in ChEMBL document CHEMBL1671622, “Novel mutation in 23S rRNA that confers low-level resistance to clarithromycin in Helicobacter pylori” (2008).

Usually MIC stands for the least concentration at which growth counts as inhibited. Read a low MIC as a more susceptible organism.

For the compound `CC[C@H]1OC(=O)[C@H](C)[C@@H](O[C@H]2C[C@@](C)(OC)[C@@H](O)[C@H](C)O2)[C@H](C)[C@@H](O[C@@H]2O[C@H](C)C[C@H](N(C)C)[C@H]2O)[C@](C)(OC)C[C@@H](C)C(=O)[C@H](C)[C@@H](O)[C@]1(C)O` [CLARITHROMYCIN], the MIC with Helicobacter pylori [1] was 1 µg/mL (≈ 1.34 µM); with Helicobacter pylori [2], at most 0.008 µg/mL; against Helicobacter pylori [3] it was 1 µg/mL (≈ 1.34 µM); in the test with Helicobacter pylori [4], 0.5 µg/mL (≈ 0.668 µM); with Helicobacter pylori [5] it was 0.5 µg/mL (≈ 0.668 µM); in the test on Helicobacter pylori [6] it was 0.25 µg/mL (≈ 0.334 µM). For the same compound, the MIC in the test with Helicobacter pylori [7] is 2 µg/mL (≈ 2.67 µM); in the test on Helicobacter pylori [8], 1 µg/mL (≈ 1.34 µM); in the test with Helicobacter pylori [9], 1 µg/mL (≈ 1.34 µM); against Helicobacter pylori [10], at least 0.125 µg/mL.
